Molecular target: recombinant USP30 (amino acids 57-517 of the human sequence) (Homo sapiens (Human), UniProt Q70CQ3)
Test: In vitro USP30 biochemical assay (Ubiquitin-Rhodamine substrate)
Conditions: 1.5 nM recombinant USP30, 25 nM Ubiquitin-Rhodamine, fluorescence
Procedure: In vitro biochemical assay to establish the potency of compounds for USP30 inhibition: a 384-well plate assay using a fluorophore tagged substrate of USP30 was used for in vitro screening of compounds. Each compound was tested at
10 different concentrations (0.5 to 10,000 nM) in duplicate wells. […] Data were analyzed using Graph Pad Prism software with a four-parameter (floating slope) fit to log concentration data to determine IC50s.

Chain of recombinant USP30 (amino acids 57-517 of the human sequence) (Q70CQ3 57-517): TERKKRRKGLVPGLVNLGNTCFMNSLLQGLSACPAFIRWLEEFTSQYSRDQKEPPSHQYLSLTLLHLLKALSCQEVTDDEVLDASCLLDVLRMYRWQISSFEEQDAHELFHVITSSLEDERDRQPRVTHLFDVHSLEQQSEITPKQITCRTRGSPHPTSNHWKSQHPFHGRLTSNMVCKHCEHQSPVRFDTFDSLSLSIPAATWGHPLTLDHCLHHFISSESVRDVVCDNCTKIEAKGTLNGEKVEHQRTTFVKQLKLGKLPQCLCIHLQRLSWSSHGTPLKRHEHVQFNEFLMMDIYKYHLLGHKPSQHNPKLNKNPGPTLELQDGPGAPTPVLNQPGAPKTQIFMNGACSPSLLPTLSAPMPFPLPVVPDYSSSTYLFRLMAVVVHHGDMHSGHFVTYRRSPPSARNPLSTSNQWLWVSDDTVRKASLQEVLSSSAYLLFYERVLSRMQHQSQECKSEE

IC50 [µM] | SMILES
0.05 to 1 | CC(C)(NS(=O)(=O)c1ccc(NC(=O)[C@H](Cc2ccccn2)NC(=O)c2ccc(F)cc2)cc1)C(F)(F)F [Compound I-212]
0.05 to 1 | CC(C)(CF)NS(=O)(=O)c1ccc(NC(=O)[C@H](Cc2ccccn2)NC(=O)c2ccc(F)cc2)cc1 [Compound I-213]
0.05 to 1 | CC(C)(C)NS(=O)(=O)c1ccc(NC(=O)[C@H](CC2CCN(C(=O)OCc3ccccc3)CC2)NC(=O)N2CCOCC2)cc1 [Compound I-214]
1 to 10 | CC(C)(C)NS(=O)(=O)c1ccc(NC(=O)[C@H](CC2CCNCC2)NC(=O)N2CCOCC2)cc1 [Compound I-215]
1 to 10 | CC(C)C[C@H](NC(=O)N1CCOCC1)C(=O)Nc1cccc2c(S(=O)(=O)NC(C)(C)C)cccc12 [Compound I-216]
1 to 10 | CN1CCC(C[C@H](NC(=O)N2CCOCC2)C(=O)Nc2ccc(S(=O)(=O)NC(C)(C)C)cc2)CC1 [Compound I-217]
0.05 to 1 | CC(C)C[C@H](NC(=O)c1ccc(F)cc1)C(=O)Nc1ccc(S(=O)(=O)NC(C)(C)C(F)(F)F)cc1 [Compound I-221]
0.05 to 1 | O=C(N[C@@H](Cc1ccccc1)C(=O)Nc1ccc(S(=O)(=O)NCc2ccncn2)cc1)c1ccc(F)cc1 [Compound I-222]
0.05 to 1 | O=C(N[C@@H](Cc1ccccc1)C(=O)Nc1ccc(S(=O)(=O)NCc2cnccn2)cc1)c1ccc(F)cc1 [Compound I-223]
0.05 to 1 | Cn1nccc1CNS(=O)(=O)c1ccc(NC(=O)[C@H](CC2CCNCC2)NC(=O)c2ccc(F)cc2)cc1 [Compound I-224]
0.05 to 1 | CC(C)C[C@H](NC(=O)c1ccc(F)cc1)C(=O)Nc1ccc(S(=O)(=O)NCc2ccnn2C)cc1 [Compound I-225]
0.05 to 1 | O=C(N[C@@H](Cc1ccccc1)C(=O)Nc1ccc(S(=O)(=O)NCc2ccn[nH]2)cc1)c1ccc(F)cc1 [Compound I-226]
0.05 to 1 | O=C(N[C@@H](Cc1ccccc1)C(=O)Nc1ccc(S(=O)(=O)NCc2ncccn2)cc1)c1ccc(F)cc1 [Compound I-228]
1 to 10 | CN(C(=O)c1ccc(F)cc1)[C@@H](Cc1ccccc1)C(=O)Nc1ccc(S(=O)(=O)NCc2ccnn2C)cc1 [Compound I-229]
0.05 to 1 | CC(C)C[C@H](NC(=O)c1ccc(F)cc1)C(=O)Nc1ccc(S(=O)(=O)NC(C)(C)CF)cc1 [Compound I-230]
0.05 to 1 | CN1CCC(C[C@H](NC(=O)c2ccc(F)cc2)C(=O)Nc2ccc(S(=O)(=O)NCc3ccnn3C)cc2)CC1 [Compound I-231]
1 to 10 | O=C(N[C@@H](Cc1ccccc1)C(=O)Nc1ccc(S(=O)(=O)NCc2nnc[nH]2)cc1)c1ccc(F)cc1 [Compound I-232]
0.05 to 1 | CC(C)(C)NS(=O)(=O)c1ccc(NC(=O)[C@H](Cc2ccccc2)NC(=O)C2CCN(C#N)CC2)cc1 [Compound I-233]
1 to 10 | CN1CCC(C[C@H](NC(=O)c2ccc(F)cc2)[C@@H](O)CNc2ccc(S(=O)(=O)NC(C)(C)C)cc2)CC1 [Compound I-234]
1 to 10 | CC(C)(C)NS(=O)(=O)c1ccc(NC[C@H](O)[C@H](CC2CCNCC2)NC(=O)c2ccc(F)cc2)cc1 [Compound I-235]
0.05 to 1 | CC(C)(C)NS(=O)(=O)c1ccc(NC[C@H](O)[C@H](Cc2ccncc2)NC(=O)c2ccc(F)cc2)cc1 [Compound I-236]
0.05 to 1 | Cn1nccc1CCNS(=O)(=O)c1ccc(NC(=O)[C@H](Cc2ccccc2)NC(=O)c2ccc(F)cc2)cc1 [Compound I-237]

IC50 [µM] | SMILES
0.05 to 1 | O=C(N[C@@H](Cc1ccccc1)C(=O)Nc1ccc(S(=O)(=O)NCc2cnc[nH]2)cc1)c1ccc(F)cc1 [Compound I-239]
0.05 to 1 | CN(C)CC[C@H](NC(=O)c1ccc(F)cc1)C(=O)Nc1ccc(S(=O)(=O)NC(C)(C)C)cc1 [Compound I-240]
0.05 to 1 | N#CN1CC(NC(=O)[C@H](Cc2ccccc2)NC(=O)c2ccc(F)cc2)C1 [Compound I-241]
0.05 to 1 | CC(C)(C)NS(=O)(=O)c1ccc(NC(=O)[C@H](CCO)NC(=O)c2ccc(F)cc2)cc1 [Compound I-242]
0.05 to 1 | CC(C)(C)NS(=O)(=O)c1ccc(NC(=O)[C@H](CC#N)NC(=O)c2ccc(F)cc2)cc1 [Compound I-243]
1 to 10 | CC(C)C[C@H](NC(=O)c1ccccc1)C(=O)NC1CN(C(=O)OCc2ccccc2)C1 [Compound I-247]
0.05 to 1 | CC(C)(C)NS(=O)(=O)c1ccc(NC(=O)[C@@H]2C[C@@H](C3CCCCC3)CN2C(=O)c2ccc(F)cc2)cc1 [Compound I-253]
1 to 10 | CC(C)(CO)NS(=O)(=O)c1ccc(NC(=O)[C@@H]2C[C@@H](C3CCCCC3)CN2C(=O)c2ccc(F)cc2)cc1 [Compound I-254]
1 to 10 | COc1cc(NC(=O)[C@@H]2C[C@@H](C3CCCCC3)CN2C(=O)c2ccc(F)cc2)cnc1S(=O)(=O)NC(C)(C)C [Compound I-255]
0.05 to 1 | COc1cc(NC(=O)[C@@H]2C[C@@H](C3CCCCC3)CN2C(=O)c2ccc(F)cc2)ccc1S(=O)(=O)NC(C)(C)C [Compound I-257]
1 to 10 | CC(C)(CO)NS(=O)(=O)c1ccc(NC(=O)[C@@H]2C[C@@H](C3CCCCC3)CN2C(=O)c2ccc(F)cc2)cn1 [Compound I-258]
0.05 to 1 | COc1cc(NC(=O)[C@@H]2C[C@@H](C3CCCCC3)CN2C(=O)c2ccc(F)cc2)ccc1S(=O)(=O)NC(C)(C)CO [Compound I-259]
0.05 to 1 | CC(C)(C)NS(=O)(=O)c1ccc(NC(=O)[C@@H]2C[C@@H](C3CCCCC3)CN2C(=O)c2ccc(F)cc2)cn1 [Compound I-260]
1 to 10 | O=C(Nc1ccc(S(=O)(=O)N[C@@H]2CCOC2)cc1)[C@@H]1C[C@@H](c2ccccc2)CN1C(=O)c1ccc(F)cc1 [Compound I-261]
1 to 10 | CC(C)(CO)NS(=O)(=O)c1ccc(NC(=O)[C@@H]2C[C@@H](c3ccccc3)CN2C(=O)c2ccc(F)cc2)cc1 [Compound I-262]
1 to 10 | O=C(Nc1ccc(S(=O)(=O)NC2COC2)cc1)[C@@H]1C[C@@H](c2ccccc2)CN1C(=O)c1ccc(F)cc1 [Compound I-263]
0.05 to 1 | COc1cc(NC(=O)[C@@H]2C[C@@H](c3ccccc3)CN2C(=O)c2ccc(F)cc2)ccc1S(=O)(=O)NC1COC1 [Compound I-265]
1 to 10 | CO[C@@H]1C[C@@H](C(=O)Nc2ccc(S(=O)(=O)NC(C)(C)C)cc2)N(C(=O)c2ccc(F)cc2)C1 [Compound I-267]
1 to 10 | O=C(Nc1ccc(S(=O)(=O)N[C@@H]2CCOC2)nc1)[C@@H]1C[C@@H](c2ccccc2)CN1C(=O)c1ccc(F)cc1 [Compound I-270]
1 to 10 | O=C(Nc1ccc(S(=O)(=O)NC2COC2)nc1)[C@@H]1C[C@@H](c2ccccc2)CN1C(=O)c1ccc(F)cc1 [Compound I-271]
0.05 to 1 | CO[C@@H]1C[C@@H](C(=O)Nc2ccc(S(=O)(=O)N[C@@H]3CCOC3)cc2)N(C(=O)c2ccc(F)cc2)C1 [Compound I-277]
1 to 10 | CC(C)(C)NS(=O)(=O)c1ccc(NC(=O)[C@@H]2C[C@H](O)CN2C(=O)c2ccc(F)cc2)cc1 [Compound I-279]

Same assay, conditions: […] recombinant USP30, 25 nM Ubiquitin-Rhodamine, fluorescence

IC50 [µM] | SMILES
> 10 | CC(C)(C)NS(=O)(=O)c1cccc2c(NC[C@H](O)[C@H](Cc3ccccc3)NC(=O)c3ccc(F)cc3)cccc12 [Compound I-211]
> 10 | CN1CCC(C[C@H](NC(=O)N2CCN(C)CC2)C(=O)Nc2ccc(S(=O)(=O)NC(C)(C)C)cc2)CC1 [Compound I-218]
> 10 | CN1CCN(C(=O)N[C@@H](CC2CCNCC2)C(=O)Nc2ccc(S(=O)(=O)NC(C)(C)C)cc2)CC1 [Compound I-219]
> 10 | CC(C)C[C@H](NC(=O)c1ccc(F)cc1)[C@@H](O)CNc1ccc(S(=O)(=O)NC(C)(C)C)cc1 [Compound I-220]
< 0.05 | Cn1cnc(CNS(=O)(=O)c2ccc(NC(=O)[C@H](Cc3ccccc3)NC(=O)c3ccc(F)cc3)cc2)c1 [Compound I-238]
> 10 | CC(C)(C)NS(=O)(=O)c1ccc(NC(=O)C(CC(N)=O)NC(=O)c2ccc(F)cc2)cc1 (stereo not shown) [Compound I-244]
> 10 | CC(C)(C)NS(=O)(=O)c1ccc(NC(=O)C2CCCCN2C(=O)c2ccc(F)cc2)cc1 (stereo not shown) [Compound I-245]
> 10 | N#CC1CC[C@@H](NC(=O)[C@H](Cc2ccccc2)NC(=O)c2ccc(F)cc2)C1 (stereo partly shown) [Compound I-246]
> 10 | CC(C)C[C@H](NC(=O)c1ccc(F)cc1)C(=O)NC1CN(C(=O)OCc2ccccc2)C1 [Compound I-248]
< 0.05 | CC(C)C[C@H](NC(=O)c1ccccc1)C(=O)NC1CN(C#N)C1 [Compound I-249]
< 0.05 | CC1(NC(=O)[C@H](Cc2ccccc2)NC(=O)c2ccc(F)cc2)CN(C#N)C1 [Compound I-250]
< 0.05 | CC(C)C[C@H](NC(=O)c1ccc(F)cc1)C(=O)NC1CN(C#N)C1 [Compound I-251]
> 10 | CC1(NC(=O)[C@H](Cc2ccccc2)NC(=O)c2ccc(F)cc2)CN(C(=O)OCc2ccccc2)C1 [Compound I-252]
> 10 | COc1cc(NC(=O)[C@@H]2C[C@@H](C3CCCCC3)CN2C(=O)c2ccc(F)cc2)cnc1S(=O)(=O)NC(C)(C)CO [Compound I-256]
> 10 | CC(C)(C)NS(=O)(=O)c1ccc(NC(=O)[C@@H]2C[C@@H](O)CN2C(=O)c2ccc(F)cc2)cc1 [Compound I-264]
> 10 | CO[C@@H]1C[C@@H](C(=O)Nc2ccc(S(=O)(=O)NC(C)(C)CO)cc2)N(C(=O)c2ccc(F)cc2)C1 [Compound I-268]
> 10 | CC(C)(CO)NS(=O)(=O)c1ccc(NC(=O)[C@@H]2C[C@@H](O)CN2C(=O)c2ccc(F)cc2)cc1 [Compound I-275]
> 10 | O=C(Nc1ccc(S(=O)(=O)NC2COC2)cc1)[C@@H]1C[C@@H](O)CN1C(=O)c1ccc(F)cc1 [Compound I-276]
> 10 | CO[C@@H]1C[C@@H](C(=O)Nc2ccc(S(=O)(=O)NC3COC3)cc2)N(C(=O)c2ccc(F)cc2)C1 [Compound I-278]
> 10 | CC(C)(CO)NS(=O)(=O)c1ccc(NC(=O)[C@@H]2C[C@H](O)CN2C(=O)c2ccc(F)cc2)cc1 [Compound I-280]
